Here are results for nine compounds from publication PMC3740782, “Synthesis of some potent immunomodulatory and anti-inflammatory metabolites by fungal transformation of anabolic steroid oxymetholone” (Chemistry Central Journal, 2012).

For one data set, the system named is ROS production in PMNs. Briefly: Luminol-enhanced phagocyte chemiluminescence assay, ROS production in isolated PMNs (neutrophils). The format is cell-based. To be noted: Homo sapiens, Neutrophil, zymosan activated, luminol probe, mean of triplicate ± SD. The protocol:
(§1) Luminol-enhanced chemiluminescence assay was performed according to the previous reported method. Briefly 25 μL of whole blood or neutrophils (1 × 10^6/mL), suspended in Hank’s solution, were incubated with 25 μL compounds (1, 10, 100 μg/mL for whole blood and 0.5, 5, 50 μg/mL for neutrophils) for 30 min. Zymosan 25 μL (20 mg/mL), followed by 25 μL (7 × 10^-5 M) of luminol was added to make a final volume of 100 μL. A control without the compound was also run. Peak chemiluminescence was recorded using the luminometer. The luminometer was set with repeated scan mode, 50 scans with 30 s intervals and one second point measuring time.

A further data set deals with T-cells. Further details: method as in PMID 11071398. Particulars: by decreasing the activity of T-cells; cited from earlier work.
Data set [1] has as its system ROS production in whole blood phagocytes. Briefly: Luminol-enhanced phagocyte chemiluminescence assay, ROS production in whole blood. To be noted: zymosan activated, luminol probe, mean of triplicate ± SD; for IC50: Homo sapiens. The data set is classed as cell-based. The protocol:
as §1

Data set [2] concerns T-cell proliferation (PHA activated human peripheral mononuclear cells, PBMC). The data set is described as follows: T-cell proliferation inhibition assay (PHA-activated PBMC, tritiated thymidine incorporation). The data set is classed as cell-based. Particulars: PHA (5 μg/mL) stimulated PBMC, 72 h + 18 h thymidine pulse, mean of triplicate ± SD, read-out: IC50, inhibitory effect on T-cell proliferation. The protocol: Peripheral blood mononuclear cells (PBMC) were isolated from heparinized venous blood of healthy adult donors by Ficoll–Hypaque gradient centrifugation. Cells were proliferated as reported earlier. Briefly, cells were cultured at a concentration of 2 × 10^6/mL in a 96-well round bottom tissue culture plate. Cells were stimulated with 5 μg/mL of phytohemagglutinin. Various concentrations of compounds were added to obtain final concentrations of 0.5, 5, 50 μg/mL, each in triplicate. The plate was incubated for 72 h at 37°C in 5% CO2 environment. After 72 h, cells were pulsed with 0.5 μCi/well, tritiated thymidine, and further incubated for 18 h. Cells were harvested onto a glass fiber filter by using cell harvester. The tritiated thymidine incorporation into the cells, which reflects the proliferation level, was measured by a liquid scintillation counter.
(In general: Incorporation of labelled thymidine or its analogues reports DNA synthesis.)

Where only a bound is given, the exact number is not on record here.

Consider `C[C@]12CC(=CO)C(=O)C[C@@H]1CC[C@@H]1[C@@H]2CC[C@@]2(C)[C@H]1CC[C@]2(C)O` [Compound 1, 17β-hydroxy-2-(hydroxymethylene)-17α-methyl-5α-androstan-3-one, reference compound], for which the IC50 with ROS production in PMNs was 6.3 ± 0.1 µg/mL; in data set [1], approximately 2 µg/mL; in data set [2] it was 7.5 ± 0.4 µg/mL. Also, the “Immunosuppressant activity in vivo” value in the data set with T-cells was “immunosuppressant activity”. Also, the “IC50, ROS production (Whole Blood phagocytes)” value in data set [1] (human whole blood) worked out at 2.3 ± 0.0 µg/mL.
For `C[C@]12C=C(CO)C(=O)C[C@@H]1CC[C@@H]1[C@@H]2CC[C@@]2(C)[C@H]1CC[C@]2(C)O` [Compound 2, 17β-Hydroxy-2-(hydroxymethyl)-17α-methyl-5α-androstan-1-en-3-one], the IC50 in data set [1] is approximately 2 µg/mL; in data set [2], 17.4 ± 1.2 µg/mL.
Regarding `C[C@]12C[C@@H](CO)[C@H](O)C[C@@H]1CC[C@@H]1[C@@H]2CC[C@@]2(C)[C@H]1CC[C@@]2(O)CO` [Compound 3, 2α,17α-Di(hydroxymethyl)-5α-androstan-3β-17β-diol], the IC50 in the data set on ROS production in PMNs was more than 50 µg/mL; in data set [1] it was more than 100 µg/mL; in data set [2] it was 17 ± 1.2 µg/mL.
`CC12CC(O)C(O)CC1CCC1C2CCC2(C)C1CCC2(C)O` (stereo not drawn) [Compound 4, 17α-Methyl-5α-androstan-2α,3β-17β-triol]: the melting point (usually the temperature, or range, at which the solid turns liquid) fell in the range of 124 to 125 °C. Besides, in the data set on ROS production in PMNs, the IC50 is more than 50 µg/mL. For the same compound, the IC50 in data set [1] is more than 100 µg/mL. The IC50 in data set [2] came to 11.8 ± 0.9 µg/mL.
For `C[C@]12C=C(CO)C(=O)C=C1CC[C@@H]1[C@@H]2CC[C@@]2(C)[C@H]1CC[C@]2(C)O` [Compound 5, 17β-Hydroxy-2-(hydroxymethyl)-17α-methylandrost-1,4-dien-3-one], the melting point is 163 to 164 °C. Moreover, in the data set on ROS production in PMNs, the IC50 was more than 50 µg/mL. Also, in data set [1], the IC50 was more than 100 µg/mL. The IC50 in data set [2] stood at 31.2 ± 1.9 µg/mL.
Taken in the same sequence, the figures for `C[C@]12C[C@@H](CO)C(=O)C[C@@H]1CC[C@@H]1[C@@H]2CC[C@@]2(C)[C@H]1CC[C@]2(C)O` [Compound 6, 17β-Hydroxy-2α-(hydroxymethyl)-17α-methyl-5α-androstan-3-one] were 197 to 199 °C, more than 50 µg/mL, more than 100 µg/mL and 2.7 ± 0.2 µg/mL.
Taken in the same sequence, the figures for `C[C@]12C[C@@H](CO)[C@H](O)C[C@@H]1CC[C@@H]1[C@@H]2CC[C@@]2(C)[C@H]1CC[C@]2(C)O` [Compound 7, 2α-(Hydroxymethyl)-17α-methyl-5α-androstan-3β-17β-diol] were 279 to 281 °C, more than 50 µg/mL, 25.6 µg/mL and 10.6 ± 0.4 µg/mL.
As to `CC(C)Cc1ccc(C(C)C(=O)O)cc1` (centres unmarked) [Ibuprofen, reference compound], the IC50 in the data set on ROS production in PMNs worked out at 2.5 ± 0.6 µg/mL; in data set [1], 11.2 ± 1.9 µg/mL.
For `C[C@]12C=CC(=O)C=C1CC[C@@H]1[C@@H]2[C@@H](O)C[C@@]2(C)[C@H]1CC[C@]2(O)C(=O)CO` [Prednisolone, reference compound], in data set [2], the IC50 is less than 3.1 µg/mL.
